In ChEMBL document CHEMBL3046708, “The effect of pyridazine compounds on the cardiovascular system” (Med Chem Res, 2012):

Experiments:
Sus scrofa [1] = assay: Cardiotoxicity in Sus scrofa (pig) assessed as increase in maximum rate of rise of left ventricular pressure at 0.05 to 0.5 ug/kg/min administered as 10 min infusion; format: toxicity, organism-based, Heart left ventricle; conditions: in vivo, iv
Sus scrofa [2] = assay: Cardiotonic activity in iv dosed Sus scrofa (pig) assessed as change in heart rate administered as infusion; format: functional
Sus scrofa [3] = assay: Cardiotoxicity in iv dosed Sus scrofa (pig) assessed as effect on maximum rate of rise of left ventricular pressure administered as infusion; format: toxicity, organism-based, Heart left ventricle; conditions: in vivo
Sus scrofa [4] = assay: Cardiotoxicity in Sus scrofa (pig) assessed as increase in maximum rate of rise of left ventricular pressure at 2.5 to 25 ug/kg/min administered as 10 min infusion; format: toxicity, organism-based, Heart left ventricle; conditions: in vivo, iv
Sus scrofa [5] = assay: Cardiotonic activity in iv dosed Sus scrofa (pig) assessed as change in left ventricular filling pressure administered as infusion; format: functional, Heart left ventricle
Sus scrofa [6] = assay: Cardiotonic activity in iv dosed Sus scrofa (pig) assessed as change in left ventricular systolic pressure administered as infusion; format: functional, Heart left ventricle

COC(=O)C1=C(C)NC(C)=C(C(=O)OCC(C)C)C1c1ccccc1[N+](=O)[O-] (stereo unspecified) [NISOLDIPINE]
Activity (Sus scrofa [1]): 45%

COc1ccc(-c2nc3ccc(C4=NNC(=O)CC4C)cc3[nH]2)cc1 (stereo unspecified) [PIMOBENDAN]
Activity (Sus scrofa [2]): 10%
Activity (Sus scrofa [3]): 10%
Activity (Sus scrofa [4]): 85%
Activity (Sus scrofa [5]): -20%
Activity (Sus scrofa [6]): -5%
